The target of assay [1] is T1, AhR-ARNT heterodimer (Homo sapiens, UniProt P35869).
T1 construct: 0.1% V/V) for 90 min at 37 °C; host or cells: LS180 cells
Briefly: Protein co-immunoprecipitation, formation of AhR-ARNT heterodimer in LS180 cells. In kind it is cell-based. The following applies: 90 min. Here is the method: Figure 6 MICTs induce a formation of the AhR-ARNT heterodimer. Intestinal LS180 cells were incubated with TCDD, tested MICT, and vehicle (DMSO; 0.1% V/V) for 90 min. Protein co-immunoprecipitation of ARNT was carried out, as described in the Methods section. The representative immunoblots of immuno-precipitated protein eluates and total cell lysates are shown. The experiments were performed in two consecutive cell passages.
(§1) Intestinal LS180 cells were incubated with TCDD, tested MICT, and vehicle (DMSO; 0.1% V/V) for 90 min at 37 °C. The Pierce™ Co-Immunoprecipitation Kit (Thermo Fisher Scientific) with covalently coupled AhR antibody (mouse monoclonal, sc-133088, A-3, Santa Cruz Biotechnology) was used. Eluted protein complexes and total parental lysates were resolved on SDS-PAGE gels followed by Western Blot analysis and immuno-detection with ARNT-1 antibody (mouse monoclonal, sc-17812, G-3, Santa Cruz Biotechnology). Chemiluminescent detection was performed using horseradish peroxidase-conjugated anti-mouse secondary antibody (7076S, Cell Signaling Technology) and WesternSure® PREMIUM Chemiluminescent Substrate (LI-COR Biotechnology) by C-DiGit® Blot Scanner (LI-COR Biotechnology).

Assay [2] addresses T2, AhR (Homo sapiens, UniProt P35869).
T2 sequence (P35869 11-848): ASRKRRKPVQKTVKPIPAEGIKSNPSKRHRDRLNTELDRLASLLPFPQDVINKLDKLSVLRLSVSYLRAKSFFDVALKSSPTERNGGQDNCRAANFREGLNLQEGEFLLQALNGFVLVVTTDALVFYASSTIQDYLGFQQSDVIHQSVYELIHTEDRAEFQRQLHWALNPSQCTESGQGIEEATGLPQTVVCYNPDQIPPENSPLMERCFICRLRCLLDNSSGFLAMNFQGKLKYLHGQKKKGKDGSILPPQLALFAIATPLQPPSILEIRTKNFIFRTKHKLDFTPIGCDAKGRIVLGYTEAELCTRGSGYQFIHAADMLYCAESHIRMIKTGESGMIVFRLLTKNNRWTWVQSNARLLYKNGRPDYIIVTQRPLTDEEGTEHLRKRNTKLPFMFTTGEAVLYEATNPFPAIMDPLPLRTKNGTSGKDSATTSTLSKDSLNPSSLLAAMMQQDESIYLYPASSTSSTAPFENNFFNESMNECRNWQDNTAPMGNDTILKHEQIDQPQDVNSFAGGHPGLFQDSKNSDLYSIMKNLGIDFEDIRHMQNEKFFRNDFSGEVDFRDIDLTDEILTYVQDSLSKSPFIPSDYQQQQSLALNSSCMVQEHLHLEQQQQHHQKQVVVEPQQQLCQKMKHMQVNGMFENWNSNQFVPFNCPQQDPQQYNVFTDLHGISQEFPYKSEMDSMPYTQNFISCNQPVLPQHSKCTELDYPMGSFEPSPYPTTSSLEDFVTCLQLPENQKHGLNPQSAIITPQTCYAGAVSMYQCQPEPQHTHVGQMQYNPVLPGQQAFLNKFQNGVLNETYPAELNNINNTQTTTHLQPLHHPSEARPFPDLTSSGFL
Briefly: Reporter gene assay in AZ-AHR cells, agonist analyses (luciferase). The procedure:
In the first series of experiments, we evaluated the agonistic and antagonistic effects of MICT on the AhR activation. […] The antagonistic effects of MICT were evaluated against typical full agonists of the AhR, comprising TCDD, BaP, and FICZ, which were applied at fixed concentrations corresponding to their EC80.
Following the treatments, we lysed cells, and luciferase activity was measured. Experiments were performed at least in four consecutive cell passages. Incubations were performed in quadruplicates (technical replicates). In agonist analyses, the data from a representative experiment, expressed as a fold induction of luciferase activity over control cells, are shown. In antagonist analyses, the data are a percentage of maximal induction, and they are the mean ± SD.
Then, cells were lysed, and luciferase activity was measured using the Tecan Infinite M200 plate luminometer (Schoeller Instruments, Czech Republic). The experiments were performed in at least four consecutive cell passages, and the treatments were in quadruplicates (technical replicates). The values of half-maximal effective concentration (EC50) for each MICT, and half-maximal inhibitory concentration (IC50—where appropriate) were calculated.
Supplementary Figure 2. Tryptophan effects in culture medium on AhR activity. (A) Time-course of Trp
levels in culture media from hepatic (AZ-AHR), instestinal (LS174T) and skin (HaCaT) cells. Determined by
HPLC. (B) Induction of AhR-dependent luciferase activity in AZ-AHR cells incubated for 24 h with TCDD,
Indole and Trp in Trp/serum-free culture medium. (C) Induction of AhR-dependent luciferase activity in
AZ-AHR cells incubated for 24 h with TCDD and Indole in standard (+Trp/+FBS), serum-free (+Trp/-FBS),
Trp-free (-Trp/+FBS) and Trp/serum-free (-Trp/-FBS) culture medium. […]

Assay [3] deals with T2, AhR. Briefly: Summary of AhR cell functions (translocation; heterodimerization; DNA-binding) in LS180 cells. Further details: 0.1% V/V), TCDD (10 nM), and test MICT; host or cells: LS180 cells. In kind it is cell-based. Particulars: Table 1 summary class. The procedure: LS180 cells (60,000 cells/well) were plated on 8-well chambered slides (94.6140.802, Sarstedt, Nümbrecht, Germany) and allowed to grow overnight. Then, the cells were incubated with DMSO (0.1% V/V), TCDD (10 nM), IND (1000 µM), IPY (200 µM), 3MI (200 µM), TA (200 µM), IAC (100 µM), and IAD (200 µM). The staining procedure was described in detail elsewhere. The images were captured using an IX73 fluorescence microscope (Olympus, Tokyo, Japan). The immunofluorescence signal intensity (of the AhR antibody) in the nucleus was evaluated visually. For percentage calculation, approximately 500 cells from at least four randomly selected fields of view in each specimen were used.
LS180 cells (4 million) were seeded in a 60-mm dish in Dulbecco’s modified Eagle’s medium (D6546; Sigma Aldrich). The following day, the cells were incubated with DMSO (0.1% V/V), TCDD (10 nM), IND (1000 µM), IPY (200 µM), 3MI (200 µM), TA (200 µM), IAC (100 µM), and IAD (200 µM) for 90 min at 37 °C. ChIP assay was performed as we described in detail elsewhere.
as §1

[4] abbreviates: EC50, AZ-AHR cells, 24 h, agonist analyses.
Where [5] appears, read: read-out: fold induction of luciferase activity (efficacy).

Consider ten compounds from publication PMC7177849, “Gut Microbial Catabolites of Tryptophan Are Ligands and Agonists of the Aryl Hydrocarbon Receptor: A Detailed Characterization” (International Journal of Molecular Sciences, 2020).

By EC50 is commonly meant the concentration at which the effect is half-maximal.

“And” between values parts separate entries of the source, which are not always exact repeats. Identical values can stand only once. Like-named read-outs stand apart in the source and are kept apart here.

T1 sequence (P27540 whole entry partner, one chain of several): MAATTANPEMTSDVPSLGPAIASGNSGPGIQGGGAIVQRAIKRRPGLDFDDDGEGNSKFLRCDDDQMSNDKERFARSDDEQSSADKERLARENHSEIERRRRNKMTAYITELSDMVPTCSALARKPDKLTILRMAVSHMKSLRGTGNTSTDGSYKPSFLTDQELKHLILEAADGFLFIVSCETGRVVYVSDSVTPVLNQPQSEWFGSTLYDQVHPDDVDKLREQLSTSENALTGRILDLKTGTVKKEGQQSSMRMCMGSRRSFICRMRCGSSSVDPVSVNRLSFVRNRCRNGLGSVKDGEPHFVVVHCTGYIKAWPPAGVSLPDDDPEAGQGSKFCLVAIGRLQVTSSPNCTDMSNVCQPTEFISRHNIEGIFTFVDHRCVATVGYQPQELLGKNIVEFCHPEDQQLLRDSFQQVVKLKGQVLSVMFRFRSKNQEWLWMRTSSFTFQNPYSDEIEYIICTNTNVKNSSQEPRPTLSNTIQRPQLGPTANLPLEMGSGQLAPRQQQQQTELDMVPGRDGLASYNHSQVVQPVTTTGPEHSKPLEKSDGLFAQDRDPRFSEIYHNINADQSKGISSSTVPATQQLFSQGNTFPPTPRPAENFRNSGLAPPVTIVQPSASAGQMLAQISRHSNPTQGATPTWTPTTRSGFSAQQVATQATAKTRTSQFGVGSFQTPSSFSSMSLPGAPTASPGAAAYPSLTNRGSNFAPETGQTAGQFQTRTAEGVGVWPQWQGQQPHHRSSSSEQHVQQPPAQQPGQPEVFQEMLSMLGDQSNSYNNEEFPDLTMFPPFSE

For the compound `Cc1c[nH]c2ccccc12` [3MI, skatole], the “formation of AhR-ARNT heterodimer” value in assay [1] is “induce a formation of AhR-ARNT heterodimer”. The EC50 in assay [2] (setting [4]) worked out at 103 ± 1.78 µM. Moreover, in assay [2] (Table 1 summary class), the “Efficacy (EMAX)” value is “medium” and the “Potency (EC50)” value was “low”. The “AhR Cell Functions (Translocation); Heterodimerization; DNA-Binding” value (shortened to “AhR Cell Functions (Translocation)”) in assay [3] is listed as “highly active–all parameters”.
As to `O=Cc1c[nH]c2ccccc12` [IA, indole-3-aldehyde], the EC50 in assay [2] (setting [4]) was 62.2 µM and 62 µM. For the same compound, in assay [2] (Table 1 summary class), the “Efficacy (EMAX)” value is given as “low” and the “Potency (EC50)” value was “low”.
With `O=C(O)/C=C/c1c[nH]c2ccccc12` [IAC, indole-3-acrylate], the “formation of AhR-ARNT heterodimer” value in assay [1] was “induce a formation of AhR-ARNT heterodimer”. Moreover, the EC50 in assay [2] (setting [4]) was found to be 42.3 ± 3.32 µM. Moreover, in assay [2] (Table 1 summary class), the “Efficacy (EMAX)” value was “medium” and the “Potency (EC50)” value is recorded as “low”. The fold induction at 100 µM in assay [2] (setting [5]) is 40 to 100. Also, the “AhR Cell Functions (Translocation)” value in assay [3] is “highly active–all parameters”.
As for `NC(=O)Cc1c[nH]c2ccccc12` [IAD, indole-3-acetamide], the “formation of AhR-ARNT heterodimer” value in assay [1] is “induce a formation of AhR-ARNT heterodimer”. For the same compound, the EC50 in assay [2] (setting [4]) amounted to 99.9 ± 2.86 µM. Also, in assay [2] (Table 1 summary class), the “Efficacy (EMAX)” value is listed as “high” and the “Potency (EC50)” value is “low”. In assay [3], the “AhR Cell Functions (Translocation)” value is “highly active–all parameters”.
For the compound `OCCc1c[nH]c2ccccc12` [IET, indole-3-ethanol], in assay [2] (setting [4]), the EC50 stood at 98 ± 6.41 µM. In assay [2] (Table 1 summary class), the “Efficacy (EMAX)” value is on record as “medium” and the “Potency (EC50)” value is “low”.
Take `O=C(O)C(O)Cc1c[nH]c2ccccc12` (stereo not shown) [ILA, indole-3-lactate]: the “Potency (EC50)” value in assay [2] is given as “low”. In addition, the EC50 in assay [2] (setting [4]) amounted to 82 ± 17.1 µM. Besides, the “Efficacy (EMAX)” value in assay [2] (Table 1 summary class) is reported as “low”.
`c1ccc2[nH]ccc2c1` [IND, indole]: the “formation of AhR-ARNT heterodimer” value in assay [1] was “induce a formation of AhR-ARNT heterodimer”. In assay [2], the “Efficacy (EMAX)” value is “high”, the “Potency (EC50)” value is listed as “very low” and the induced luciferase activity is recorded as 500 fold. The concentration for a half-maximal effect (EC50) in assay [2] (EC50) is ~1500 µM and 1480 µM. The fold induction at 10000 µM in assay [2] (setting [5]) lay within 200 to 600. In addition, the “AhR Cell Functions (Translocation)” value in assay [3] was “highly active–all parameters”.
`O=C(O)C(=O)Cc1c[nH]c2ccccc12` [IPY, indole-3-pyruvate]: the “formation of AhR-ARNT heterodimer” value in assay [1] is on record as “induce a formation of AhR-ARNT heterodimer”. In addition, the EC50 in assay [2] (setting [4]) came out at 98.5 ± 10.1 µM. Further, in assay [2] (Table 1 summary class), the “Efficacy (EMAX)” value is recorded as “high” and the “Potency (EC50)” value was “low”. In addition, in assay [3], the “AhR Cell Functions (Translocation)” value is “highly active–all parameters”.
Turning to `NCCc1c[nH]c2ccccc12` [TA, tryptamine], the “formation of AhR-ARNT heterodimer” value in assay [1] is reported as “induce a formation of AhR-ARNT heterodimer”. Moreover, the EC50 in assay [2] (setting [4]) is 83.1 ± 12.7 µM. For the same compound, in assay [2] (Table 1 summary class), the “Efficacy (EMAX)” value was “medium” and the “Potency (EC50)” value was “low”. Further, in assay [3], the “AhR Cell Functions (Translocation)” value is given as “highly active–all parameters”.
On to `Clc1cc2c(cc1Cl)Oc1cc(Cl)c(Cl)cc1O2` [TCDD, 2,3,7,8-tetrachlorodibenzo-p-dioxin, reference compound], for which the induced luciferase activity in assay [2] (AZ-AHR cells, 24 h, Trp-free/serum-free medium) amounted to 10000 fold.
